Consider 11 compounds from patent publication US20120122843A1, “Compounds and Their Use for Treatment of Amyloid Beta-Related Diseases” (ASTRAZENECA AB, priority 2010, published 2012).

Structures are written as SMILES.

One assay deals with Notch. The experiment in a line: Release and translocation of Notch intracellular domain into the nucleus, HEK/AENotch cells (NICD immunostaining, ImageXpress). It counts as cell-based, Human. To be noted: 3 μM Lactacystin, 4-6 h incubation, nucleus/cytosol NICD fluorescence ratio. The gist of the method:
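HEK cells overexpressing a Notch1-ΔE-myc construct were plated for 15–24 h, then treated 4–6 h with compound (typically up to 25 μM, 0.5% DMSO) plus 3 μM Lactacystin. Fixed cells were immunostained for NICD, and the nuclear/cytosolic fluorescence ratio was imaged. Cytotoxicity was judged by nucleus area or cell number.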

The next assay deals with Aβtotal. The experiment in a line: Total Aβ release from HEK cells stably expressing APPswe (MSD, 6E10 and 4G8 antibodies). It counts as cell-based. To be noted: Homo sapiens, HEK293, 4-6 h incubation with test compound, total Aβ secreted to cell medium. The protocol: The level of activity of the compounds on Aβ formation was tested using the following method:
Compounds were diluted in 100% DMSO and stored at […] prior to use. Human Embryonic Kidney (HEK) cell line stably expressing APP with the Swedish mutation (APPswe) were cultured using Dulbecco's Modified Eagles medium (DMEM) supplied with […] glucose, Na-pyruvate and GlutaMAX with 10% FBS, 100 U/ml penicillin-streptomycin (PEST) respectively, 1× non-essential amino acids (NEAA), […] Hepes, 100 μg/ml Zeocine. Cells at about 80% confluence were washed with PBS, detached from culture flasks using 1× Trypsin/EDTA diluted in PBS, re-suspended in cell media and plated in 384-well poly-d-lysine coated cell culture plates at about 10000-15000 cells/well, in 25 μL cell media. Optionally, cryo-preserved cells (frozen and stored at −140° C. in 90% cell media and 10% DMSO) were thawed, washed and plated as above. Next the cells were incubated for 15-24 h at 37° C. and 5% CO2, after which cell medium was changed. Fresh medium containing test compound diluted ×200 from prepared compound plate was added to the cells before further incubation for 4-6 hours at 37° C. and 5% CO2. After incubation with test compound the amount of Aβ peptides, including Aβ42, Aβ40, Aβ39, Aβ38 and Aβ37, as well as total Aβ levels, secreted to cell medium was analyzed using the electrochemiluminescence assay technology from Meso Scale Discovery (MSD), in combination with specific antibodies raised against the different Aβ peptides. Aβ42, Aβ40 and Aβ38 antibodies were purchased from MSD and Aβ37 and Aβ39 were made in house. Total Aβ was measured using a combination of 6E10 and 4G8 anti Aβ antibodies from MSD. Potential cytotoxic effects of the compounds were usually assayed by measuring the ATP content (ViaLight) from cell lysate.

In a further assay the test system is Aβ42. Put plainly: Aβ42 release from HEK cells stably expressing APPswe (MSD electrochemiluminescence). The format is cell-based, Human. Conditions: 4-6 h incubation with test compound, Aβ42 secreted to cell medium. The gist of the method:
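HEK cells stably expressing APPswe, plated 15–24 h, then given compound in fresh medium (diluted ×200 from compound plate) for 4–6 h at 37 °C. Secreted Aβ in medium measured by MSD electrochemiluminescence; total Aβ via 6E10 plus 4G8 antibodies, Aβ42 via specific antibody. Cytotoxicity checked by ATP content of lysate.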

Where [1] appears, read: Homo sapiens, HEK293, HEK cells expressing APPswe.

As to `COc1nc(Nc2ccc3c(n2)OC(CC(F)(F)F)CN(C)C3C)ccc1-c1cnn(C)c1` (single isomer, unassigned) [Example 33, N-(6-Methoxy-5-(1-methyl-1H-pyrazol-4-yl)pyridin-2-yl)-4,5-dimethyl-2-(2,2,2-trifluoroethyl)-2,3,4,5-tetrahydropyrido[3,2-f][1,4]oxazepin-8-amine], the values for the IC50 in the assay on Notch (Homo sapiens), with Aβtotal and with Aβ42 (setting [1]) were above 25000 nM, above 5000 nM and 8 nM, respectively.
`COc1nc(Nc2ccc3c(n2)OC(C2CC(F)(F)C2)CN(C)C3)ccc1-c1cnn(C)c1` (single isomer, unassigned) [Example 37, 2-(3,3-Difluorocyclobutyl)-N-(6-methoxy-5-(1-methyl-1H-pyrazol-4-yl)pyridin-2-yl)-4-methyl-2,3,4,5-tetrahydropyrido[3,2-f][1,4]oxazepin-8-amine]: the IC50 with Notch (Homo sapiens) was above 25000 nM; in the assay with Aβtotal, above 1000 nM; in the assay on Aβ42 (HEK cells expressing APPswe), 4 nM.
For `COc1nc(Nc2ccc3c(n2)OC(CC(F)(F)F)CN(C)C3)ccc1-c1cnn(C)c1` (single isomer, unassigned; (+)) [Example 4, (+)-N-(6-Methoxy-5-(1-methyl-1H-pyrazol-4-yl)pyridin-2-yl)-4-methyl-2-(2,2,2-trifluoroethyl)-2,3,4,5-tetrahydropyrido[3,2-f][1,4]oxazepin-8-amine], the IC50 in the assay with Notch (Homo sapiens) is above 25000 nM; with Aβtotal, 512 nM; with Aβ42 (HEK cells expressing APPswe), 9 nM.
In the case of `COc1nc(Nc2ccc3c(n2)OC(CCC(F)(F)F)CN(C)C3)ccc1-n1cnc(C)c1` (single isomer, unassigned; (+)) [Example 61, (+)-[6-Methoxy-5-(4-methyl-imidazol-1-yl)-pyridin-2-yl]-[6-methyl-8-(3,3,3-trifluoro-propyl)-5,6,7,8-tetrahydro-9-oxa-1,6-diaza-benzocyclohepten-2-yl]-amine], the IC50 is above 25000 nM in the assay with Notch (Homo sapiens), above 1000 nM in the assay with Aβtotal and 3 nM in the assay with Aβ42 (setting [1]).
For the compound `COc1nc(Nc2ccc3c(n2)OC(CC(CF)CF)CN(C)C3)ccc1-n1cnc(C)c1` (single isomer, unassigned; (+)) [Example 67, (+)-[8-(3-Fluoro-2-fluoromethyl-propyl)-6-methyl-5,6,7,8-tetrahydro-9-oxa-1,6-diaza-benzocyclohepten-2-yl]-[6-methoxy-5-(4-methyl-imidazol-1-yl)-pyridin-2-yl]-amine], the IC50 was 6230 nM in the assay with Notch, above 25000 nM in the assay with Aβtotal and 10 nM in the assay with Aβ42 (setting [1]).
Turning to `COc1nc(Nc2ccc3c(n2)OC(c2nc(C)cs2)CN(C)C3)ccc1-n1cnc(C)c1` (stereo not drawn) [Example 12, N-(6-Methoxy-5-(4-methyl-1H-imidazol-1-yl)pyridin-2-yl)-4-methyl-2-(4-methylthiazol-2-yl)-2,3,4,5-tetrahydropyrido[3,2-f][1,4]oxazepin-8-amine], the results for the IC50 with Notch (Homo sapiens), with Aβtotal and with Aβ42 (setting [1]) were above 25000 nM, 1850 nM and 13 nM, respectively.
On to `COc1nc(Nc2ccc3c(n2)OC(CCC(F)(F)F)CN(C)C3)ccc1-c1cnn(C)c1` (stereo not drawn) [Example 27, [6-Methoxy-5-(1-methyl-1H-pyrazol-4-yl)-pyridin-2-yl]-[6-methyl-8-(3,3,3-trifluoro-propyl)-5,6,7,8-tetrahydro-9-oxa-1,6-diaza-benzocyclohepten-2-yl]-amine], for which the IC50 in the assay on Notch (Homo sapiens) worked out at 16300 nM; in the assay with Aβtotal it was 8720 nM; with Aβ42 (setting [1]), 12 nM.
Consider `COc1nc(Nc2ccc3c(n2)OC(CCC(F)(F)F)CN(C)C3)ccc1-n1cnc(C)c1` (stereo not drawn) [Example 28, [6-Methoxy-5-(4-methyl-imidazol-1-yl)-pyridin-2-yl]-[6-methyl-8-(3,3,3-trifluoro-propyl)-5,6,7,8-tetrahydro-9-oxa-1,6-diaza-benzocyclohepten-2-yl]-amine], for which the figures for the IC50 in the assay with Notch (Homo sapiens), in the assay with Aβtotal and with Aβ42 (setting [1]) were above 25000 nM, above 1000 nM and 7 nM, respectively.
Consider `COc1nc(Nc2ccc3c(n2)OC(CC(CF)CF)CN(C)C3)ccc1-c1cnn(C)c1` (stereo not drawn) [Example 31, [8-(3-Fluoro-2-fluoromethyl-propyl)-6-methyl-5,6,7,8-tetrahydro-9-oxa-1,6-diaza-benzocyclohepten-2-yl]-[6-methoxy-5-(1-methyl-1H-pyrazol-4-yl)-pyridin-2-yl]-amine], for which the IC50 was above 7900 nM with Notch (Homo sapiens), 9470 nM in the assay with Aβtotal and 22 nM in the assay with Aβ42 (setting [1]).
Turning to `COc1nc(Nc2ccc3c(n2)OC(CC(CF)CF)CN(C)C3)ccc1-n1cnc(C)c1` (stereo not drawn) [Example 32, [8-(3-Fluoro-2-fluoromethyl-propyl)-6-methyl-5,6,7,8-tetrahydro-9-oxa-1,6-diaza-benzocyclohepten-2-yl]-[6-methoxy-5-(4-methyl-imidazol-1-yl)-pyridin-2-yl]-amine], the values for the IC50 with Notch (Homo sapiens), in the assay on Aβtotal and with Aβ42 (setting [1]) were above 7900 nM, above 5000 nM and 7 nM, respectively.
Taken in the same sequence, the figures for `COc1nc(Nc2ccc3c(n2)O[C@H](c2ccccc2)CN(C)C3)ccc1-c1cnc(C)o1` [Example 49, (2R)—N-[6-Methoxy-5-(2-methyloxazol-5-yl)-2-pyridyl]-4-methyl-2-phenyl-3,5-dihydro-2H-pyrido[3,2-f][1,4]oxazepin-8-amine] were 2170 nM, 5460 nM and 2 nM.

As a reminder, the IC50 is the concentration at which inhibition is half-maximal.
